Laboratory results from patent US7186744B2, “Prostamides for the treatment of glaucoma and related diseases” (Allergan, Inc., priority 2003, dated 2007).
Marks after values point to notes of the source that are not given here.

Tested on: dogs (Beagle)
Assay: Intraocular pressure studies by pneumatonometry in dogs
Format: in vivo
Settings: conscious Beagle dogs, topical 25 μL drop, 0.03% drug
Method: Intraocular pressure studies were carried out for compounds 1–3 by pneumatonometry in dogs (Beagle) of both sexes (10–15 kg). The animals remained conscious throughout the study and were gently restrained by hand. Drugs were administered topically to one eye as a 25 μL volume drop comprising 0.03% drug, 0.1% polysorbate 80:10 mM TRIS, the other eye received 0.1% polysorbate 80:10 mM TRIS. Proparacaine (0.1%) was used for corneal anesthesia during tonometry. Intraocular pressure was determined just before drug administration and at 2, 4 and 6 hours thereafter on each day of the 5 day study. […] Drug was administered immediately after the first IOP reading.

[1] = 0 hrs (just before drug administration)

| SMILES | Change in Intraocular Pressure (IOP) [1] | Change in Intraocular Pressure (IOP) (2 hrs) | Change in Intraocular Pressure (IOP) (4 hrs) | Change in Intraocular Pressure (IOP) (6 hrs) | Change in Intraocular Pressure (IOP) (24 hrs) |
| --- | --- | --- | --- | --- | --- |
| CCCCC[C@H](O)/C=C/[C@@H]1[C@@H](C/C=C\CCCC(=O)NCCc2ccc(O)c(O)c2)[C@@H](O)C[C@H]1O [Compound 2, (Z)-7-[(1R,2R,3R,5S)-3,5-Dihydroxy-2-((E)—(S)-3-hydroxy-oct-1-enyl)-cyclopentyl]-hept-5-enoic acid [2-(3,4-dihydroxy-phenyl)-ethyl]-amide] | 0 | −3.8* | −3.2** | −3.2** | −1.1* |
| CCCCC[C@H](O)/C=C/[C@@H]1[C@@H](C/C=C\CCCC(=O)NCCc2c[nH]c3ccc(O)cc23)[C@@H](O)C[C@H]1O [Compound 3, (Z)-7-[(1R,2R,3R,5S)-3,5-Dihydroxy-2-((E)—(S)-3-hydroxy-oct-1-enyl)-cyclopentyl]-hept-5-enoic acid [2-(5-hydroxy-1H-indol-3-yl)-ethyl]-amide] | 0 | −3.2* | −5.8* | −7.6** | −2.2 |
